The values below come from patent US20110038885A1, “CHEMOKINE ANALOGS” (priority 2007, published 2011).

Bridge positions count the residues as written; N and C are the ends. Square brackets hold non-standard residues; d marks the D form. Peptide text beside a SMILES is read from it. * marks the point of attachment. d(pGlu) = O=C1CC[C@H](C(=O)O)N1; Lauroyl = CCCCCCCCCCCC(=O)*; Butyryl = CCCC(=O)* Where only a bound is given, the exact number is not on record here.

For one series, the system named is MCP-1. Nature of the series: In vitro chemotaxis (trans-well migration) v MCP-1. The class given is cell-based, human. A digest of the protocol: (§1)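 Trans-well migration toward IL-8 or MCP-1 placed below, with agent added to THP-1 cells (10^4-10^6) in the top well and incubation at 37° C (e.g. 4 hours). MTT absorbance at 595 nm, interpolated on a cell standard curve, gives migrated cell numbers; TGFβ-type negative control and cytotoxicity check included.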

A further series can be described thus: Half-life in rat in vivo. Particulars: for half-life: read-out: T ½ rat in vivo.
A further series deals with IL-8. In words: In vitro chemotaxis, inhibition v IL-8. The class given is cell-based, human. On the set-up: concentration or dose not given beside the values. In outline: as §1

`CC[C@H](C)[C@@H]1NC(=O)[C@H](Cc2c[nH]c3ccccc23)NC(=O)[C@H](CCCCN)NC(=O)[C@H](CCC(N)=O)NC(=O)[C@H](CCCCN)NC(=O)[C@@H]2CCCN2C(=O)[C@H](CC(=O)O)NC(=O)[C@H](CC(C)C)NC(=O)[C@@H](NC(C)=O)CSSC[C@@H](C(N)=O)NC(=O)[C@H](CCC(N)=O)NC1=O` [Example 9, Ac-c(Cys-Leu-Asp-Pro-Lys-Gln-Lys-Trp-Ile-Gln-Cys)-NH2] (Ac-CLDPKQKWIQC-NH2; disulfide 1-11) had an EC50 with MCP-1 of 2 nM. For the same compound, the half-life in “Half-life in rat in vivo” came out at 5.4 min. Also, in the series on IL-8, the “v IL-8 inhibition (%)” value is 102.3%.
The matching figures for `CC[C@H](C)[C@@H]1NC(=O)[C@H](Cc2c[nH]c3ccccc23)NC(=O)[C@H](CCCCN)NC(=O)[C@H](CCC(N)=O)NC(=O)[C@H](CCCCN)NC(=O)[C@@H]2CCCN2C(=O)[C@H](CC(=O)O)NC(=O)[C@@H](NC(=O)[C@H](CC(C)C)NC(C)=O)CSSC[C@@H](C(N)=O)NC(=O)[C@H](CCC(N)=O)NC1=O` [Example 19, Ac-Leu-c(Cys-Asp-Pro-Lys-Gln-Lys-Trp-Ile-Gln-Cys)-NH2] (Ac-LCDPKQKWIQC-NH2; disulfide 2-11): 7 nM, less than 5 min and 100.5%.
`CC[C@H](C)[C@@H]1NC(=O)[C@H](Cc2c[nH]c3ccccc23)NC(=O)[C@H](CCCCN)NC(=O)[C@H](CCC(N)=O)NC(=O)[C@H](CCCCN)NC(=O)[C@@H]2CCCN2C(=O)[C@@H](NC(=O)[C@H](CC(=O)O)NC(=O)[C@H](CC(C)C)NC(C)=O)CSSC[C@@H](C(N)=O)NC(=O)[C@H](CCC(N)=O)NC1=O` [Example 20, Ac-Leu-Asp-c(Cys-Pro-Lys-Gln-Lys-Trp-Ile-Gln-Cys)-NH2] (Ac-LDCPKQKWIQC-NH2; disulfide 3-11) came in with an EC50 in the series on MCP-1 of 8 nM. In “Half-life in rat in vivo”, the “T ½ rat in vivo” value turned out to be 4.7 min and the half-life was 2.7 min. The “v IL-8 inhibition (%)” value in the series with IL-8 is 93.9%.
`CC[C@H](C)[C@@H]1NC(=O)[C@H](Cc2c[nH]c3ccccc23)NC(=O)[C@H](CCCCN)NC(=O)[C@H](CCC(N)=O)NC(=O)[C@H](CCCCN)NC(=O)[C@@H](NC(=O)[C@@H]2CCCN2C(=O)[C@H](CC(=O)O)NC(=O)[C@H](CC(C)C)NC(C)=O)CSSC[C@@H](C(N)=O)NC(=O)[C@H](CCC(N)=O)NC1=O` [Example 21, Ac-Leu-Asp-Pro-c(Cys-Lys-Gln-Lys-Trp-Ile-Gln-Cys)-NH2] (Ac-LDPCKQKWIQC-NH2; disulfide 4-11) came in with an EC50 in the series on MCP-1 of 7 nM. The half-life in “Half-life in rat in vivo” stood at 22 min. In addition, the “v IL-8 inhibition (%)” value in the series on IL-8 was found to be 96.3%.
For the compound `CC[C@H](C)[C@@H]1NC(=O)[C@H](Cc2c[nH]c3ccccc23)NC(=O)[C@@H](CCCCN)NC(=O)[C@H](CCC(N)=O)NC(=O)[C@H](CCCCN)NC(=O)[C@@H]2CCCN2C(=O)[C@H](CC(=O)O)NC(=O)[C@H](CC(C)C)NC(=O)[C@@H](NC(C)=O)CSSC[C@@H](C(N)=O)NC(=O)[C@H](CCC(N)=O)NC1=O` [Example 27, Ac-c(Cys-Leu-Asp-Pro-Lys-Gln-D-Lys-Trp-Ile-Gln-Cys)-NH2] (Ac-CLDPKQ[dK]WIQC-NH2; disulfide 1-11), in the series on MCP-1, the 50% effective concentration (EC50) came to 7 nM. Also, the half-life in the series “Half-life in rat in vivo” was 22.7 min. Further, in the series with IL-8, the “v IL-8 inhibition (%)” value came to 91.0%.
In the series with MCP-1, `CC[C@H](C)[C@@H]1NC(=O)[C@H](Cc2c[nH]c3ccccc23)NC(=O)[C@H](CCCCN)NC(=O)[C@@H](CCC(N)=O)NC(=O)[C@H](CCCCN)NC(=O)[C@@H]2CCCN2C(=O)[C@H](CC(=O)O)NC(=O)[C@H](CC(C)C)NC(=O)[C@@H](NC(C)=O)CSSC[C@@H](C(N)=O)NC(=O)[C@H](CCC(N)=O)NC1=O` [Example 28, Ac-c(Cys-Leu-Asp-Pro-Lys-D-Gln-Lys-Trp-Ile-Gln-Cys)-NH2] (Ac-CLDPK[dQ]KWIQC-NH2; disulfide 1-11) registered an EC50 of 4 nM. For the same compound, the half-life in the series “Half-life in rat in vivo” stood at 14 min. Besides, the “v IL-8 inhibition (%)” value in the series with IL-8 came to 96.9%.
`CC[C@H](C)[C@@H]1NC(=O)[C@H](Cc2c[nH]c3ccccc23)NC(=O)[C@H](CCCCN)NC(=O)[C@H](CCC(N)=O)NC(=O)[C@H](CCCCN)NC(=O)[C@H]2CCCN2C(=O)[C@H](CC(=O)O)NC(=O)[C@H](CC(C)C)NC(=O)[C@@H](NC(C)=O)CSSC[C@@H](C(N)=O)NC(=O)[C@H](CCC(N)=O)NC1=O` [Example 30, Ac-c(Cys-Leu-Asp-D-Pro-Lys-Gln-Lys-Trp-Ile-Gln-Cys)-NH2] (Ac-CLD[dP]KQKWIQC-NH2; disulfide 1-11) registered an EC50 with MCP-1 of 8 nM. Moreover, the half-life in the series “Half-life in rat in vivo” is less than 10 min. In the series with IL-8, the “v IL-8 inhibition (%)” value was 99.2%.
Regarding `CC[C@H](C)[C@@H]1NC(=O)[C@H](Cc2c[nH]c3ccccc23)NC(=O)[C@H](CCCCN)NC(=O)[C@@H](NC(=O)[C@H]2CCC(=O)N2)CSSC[C@@H](C(N)=O)NC(=O)[C@H](CCC(N)=O)NC1=O` [Example 53, DpGlu-c(Cys-Lys-Trp-Ile-Gln-Cys)-NH2] ([d(pGlu)]CKWIQC-NH2; disulfide 2-7), the EC50 with MCP-1 is 6 nM. In the series “Half-life in rat in vivo”, the “T ½ rat in vivo” value is 23.1 min and the half-life came out at 19.4 min.
In the series on MCP-1, `CC[C@H](C)[C@@H]1NC(=O)[C@H](Cc2c[nH]c3ccccc23)NC(=O)[C@H](CCCCN)NC(=O)[C@@H](NC(=O)[C@H](CCC(N)=O)NC(C)=O)CSSC[C@@H](C(N)=O)NC(=O)[C@H](CCC(N)=O)NC1=O` [Example 54, Ac-Gln-c(Cys-Lys-Trp-Ile-Gln-Cys)-NH2] (Ac-QCKWIQC-NH2; disulfide 2-7) came in with a half-maximal effective concentration (EC50) of 10 nM. Besides, in the series “Half-life in rat in vivo”, the “T ½ rat in vivo” value came to 20.9 min and the half-life is 30.3 min.
For the compound `CC[C@H](C)[C@@H]1NC(=O)[C@H](Cc2c[nH]c3ccccc23)NC(=O)[C@H](CCCCN)NC(=O)[C@@H](NC(C)=O)CSSC[C@@H](C(N)=O)NC(=O)[C@H](CCC(N)=O)NC1=O` [Example 55, Ac-c(Cys-Lys-Trp-Ile-Gln-Cys)-NH2] (Ac-CKWIQC-NH2; disulfide 1-6), in the series on MCP-1, the EC50 came out at 6 nM. In “Half-life in rat in vivo”, the “T ½ rat in vivo” value was found to be 16.5 min and the half-life is 18 min.
In the series on MCP-1, `CCCCCCCCCCCC(=O)NCCCC[C@H](N)C(=O)N[C@H](C(=O)N[C@H]1CSSC[C@@H](C(N)=O)NC(=O)[C@H](CCC(N)=O)NC(=O)[C@H]([C@@H](C)CC)NC(=O)[C@H](Cc2c[nH]c3ccccc23)NC(=O)[C@H](CCCCN)NC(=O)[C@H](CCC(N)=O)NC(=O)[C@H](CCCCN)NC(=O)[C@@H]2CCCN2C(=O)[C@H](CC(=O)O)NC(=O)[C@H](CC(C)C)NC1=O)[C@@H](C)CC` [Example 169, Lys(Nε-dodecanoyl)-Ile-c(Cys-Leu-Asp-Pro-Lys-Gln-Lys-Trp-Ile-Gln-Cys)-NH2] (H-K(Lauroyl)ICLDPKQKWIQC-NH2; disulfide 3-13) displayed an EC50 of more than 1000 nM. In addition, the “v IL-8 inhibition (%)” value in the series on IL-8 turned out to be 7.7%.
`CCCC(=O)N[C@@H]1CSSC[C@H](C(N)=O)NC(=O)[C@@H](CCCCN)NC(=O)[C@@H](Cc2c[nH]c3ccccc23)NC(=O)[C@@H]([C@H](C)CC)NC(=O)[C@@H](CCC(N)=O)NC1=O` [Example 191, nButyryl-c(D-Cys-D-Gln-D-Ile-D-Trp-D-Lys-D-Cys)-NH2] (Butyryl-[dC][dQ][dI][dW][dK][dC]-NH2; disulfide 1-6) gave a 50% effective concentration (EC50) in the series on MCP-1 of 5 nM. For the same compound, the half-life in the series “Half-life in rat in vivo” is 30 min.

One may read the EC50 as the concentration giving half of the maximal effect.
